{
  "source": "ChEMBL document CHEMBL1201862",
  "about": "“PubChem BioAssay data set” (2004)",
  "key": {"[1]": {"target": "Tyrosine-protein phosphatase non-receptor type 11 (Homo sapiens, UniProt Q06124)", "test": "PTPN11 enzyme inhibitors – biochemical, selectivity assay for STEP inhibitor project, dose response (AID 602367)", "format": "functional", "settings": "read-out: IC50_Mean"}, "[2]": {"target": "Tyrosine-protein phosphatase non-receptor type 5 (Homo sapiens, UniProt P54829)", "test": "PTPN5 enzyme inhibition – biochemical, fluorescence intensity, uHTS hits, confirmation (AID 602372)", "format": "functional", "settings": "read-out: IC50_Mean"}, "[3]": {"target": "Dual specificity protein phosphatase 3 (Homo sapiens, UniProt P51452)", "sequence (P51452 whole entry)": "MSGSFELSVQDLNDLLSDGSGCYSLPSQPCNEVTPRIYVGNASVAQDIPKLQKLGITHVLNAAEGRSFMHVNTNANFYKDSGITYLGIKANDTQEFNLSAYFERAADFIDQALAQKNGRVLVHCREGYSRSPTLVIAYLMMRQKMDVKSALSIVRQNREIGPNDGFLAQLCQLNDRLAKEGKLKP", "test": "VHR phosphatase inhibition, dose response, selectivity assay for STEP inhibitor project, biochemical (AID 602374)", "format": "functional", "settings": "read-out: IC50_Mean"}, "Aminopeptidase N": {"target": "T1, Aminopeptidase N (Plasmodium falciparum FcB1/Columbia, UniProt O96935)", "T1 sequence (O96935 whole entry)": "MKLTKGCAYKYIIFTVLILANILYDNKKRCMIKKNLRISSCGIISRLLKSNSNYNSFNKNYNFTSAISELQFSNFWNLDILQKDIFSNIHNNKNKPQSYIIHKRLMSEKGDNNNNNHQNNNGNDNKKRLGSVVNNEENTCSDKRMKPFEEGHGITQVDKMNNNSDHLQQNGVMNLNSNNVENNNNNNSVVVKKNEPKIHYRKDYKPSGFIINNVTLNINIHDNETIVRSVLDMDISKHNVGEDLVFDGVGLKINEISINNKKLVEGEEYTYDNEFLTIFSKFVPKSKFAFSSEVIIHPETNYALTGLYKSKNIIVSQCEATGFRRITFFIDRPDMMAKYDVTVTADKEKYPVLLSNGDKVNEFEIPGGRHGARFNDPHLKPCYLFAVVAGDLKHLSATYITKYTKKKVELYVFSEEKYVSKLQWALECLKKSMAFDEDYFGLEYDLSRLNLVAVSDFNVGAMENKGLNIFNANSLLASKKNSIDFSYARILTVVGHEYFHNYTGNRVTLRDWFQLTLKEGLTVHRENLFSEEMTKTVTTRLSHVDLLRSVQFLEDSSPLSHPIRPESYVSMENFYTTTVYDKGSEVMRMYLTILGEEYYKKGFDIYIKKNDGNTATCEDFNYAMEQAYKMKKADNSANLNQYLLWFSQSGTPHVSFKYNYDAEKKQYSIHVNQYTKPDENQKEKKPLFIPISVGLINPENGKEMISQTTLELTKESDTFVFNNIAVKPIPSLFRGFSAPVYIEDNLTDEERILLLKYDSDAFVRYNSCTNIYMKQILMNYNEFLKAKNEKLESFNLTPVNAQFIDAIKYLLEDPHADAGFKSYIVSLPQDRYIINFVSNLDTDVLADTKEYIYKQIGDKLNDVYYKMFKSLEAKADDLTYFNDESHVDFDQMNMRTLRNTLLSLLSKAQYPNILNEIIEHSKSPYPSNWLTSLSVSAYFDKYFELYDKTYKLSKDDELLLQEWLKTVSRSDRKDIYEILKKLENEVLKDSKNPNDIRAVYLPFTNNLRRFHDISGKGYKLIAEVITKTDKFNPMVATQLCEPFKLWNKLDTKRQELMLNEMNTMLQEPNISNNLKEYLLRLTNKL", "test": "malaria alanyl aminopeptidase activity blockers – biochemical, fluorogenic H-Leu-NHMec substrate, 1536-well (AID 1445)", "parameters": "species or system Plasmodium falciparum 3D7, 3D7"}, "Vero": {"system": "Vero", "test": "mammalian cell viability reduction – secondary assay, cytotoxicity control for West Nile virus antiviral project, dose response (AID 1650)", "format": "functional", "settings": "Chlorocebus sabaeus"}, "[4]": {"target": "SWI/SNF-related matrix-associated actin-dependent regulator of chromatin subfamily A member 2 (Homo sapiens, UniProt P51531)", "sequence (P51531 whole entry)": "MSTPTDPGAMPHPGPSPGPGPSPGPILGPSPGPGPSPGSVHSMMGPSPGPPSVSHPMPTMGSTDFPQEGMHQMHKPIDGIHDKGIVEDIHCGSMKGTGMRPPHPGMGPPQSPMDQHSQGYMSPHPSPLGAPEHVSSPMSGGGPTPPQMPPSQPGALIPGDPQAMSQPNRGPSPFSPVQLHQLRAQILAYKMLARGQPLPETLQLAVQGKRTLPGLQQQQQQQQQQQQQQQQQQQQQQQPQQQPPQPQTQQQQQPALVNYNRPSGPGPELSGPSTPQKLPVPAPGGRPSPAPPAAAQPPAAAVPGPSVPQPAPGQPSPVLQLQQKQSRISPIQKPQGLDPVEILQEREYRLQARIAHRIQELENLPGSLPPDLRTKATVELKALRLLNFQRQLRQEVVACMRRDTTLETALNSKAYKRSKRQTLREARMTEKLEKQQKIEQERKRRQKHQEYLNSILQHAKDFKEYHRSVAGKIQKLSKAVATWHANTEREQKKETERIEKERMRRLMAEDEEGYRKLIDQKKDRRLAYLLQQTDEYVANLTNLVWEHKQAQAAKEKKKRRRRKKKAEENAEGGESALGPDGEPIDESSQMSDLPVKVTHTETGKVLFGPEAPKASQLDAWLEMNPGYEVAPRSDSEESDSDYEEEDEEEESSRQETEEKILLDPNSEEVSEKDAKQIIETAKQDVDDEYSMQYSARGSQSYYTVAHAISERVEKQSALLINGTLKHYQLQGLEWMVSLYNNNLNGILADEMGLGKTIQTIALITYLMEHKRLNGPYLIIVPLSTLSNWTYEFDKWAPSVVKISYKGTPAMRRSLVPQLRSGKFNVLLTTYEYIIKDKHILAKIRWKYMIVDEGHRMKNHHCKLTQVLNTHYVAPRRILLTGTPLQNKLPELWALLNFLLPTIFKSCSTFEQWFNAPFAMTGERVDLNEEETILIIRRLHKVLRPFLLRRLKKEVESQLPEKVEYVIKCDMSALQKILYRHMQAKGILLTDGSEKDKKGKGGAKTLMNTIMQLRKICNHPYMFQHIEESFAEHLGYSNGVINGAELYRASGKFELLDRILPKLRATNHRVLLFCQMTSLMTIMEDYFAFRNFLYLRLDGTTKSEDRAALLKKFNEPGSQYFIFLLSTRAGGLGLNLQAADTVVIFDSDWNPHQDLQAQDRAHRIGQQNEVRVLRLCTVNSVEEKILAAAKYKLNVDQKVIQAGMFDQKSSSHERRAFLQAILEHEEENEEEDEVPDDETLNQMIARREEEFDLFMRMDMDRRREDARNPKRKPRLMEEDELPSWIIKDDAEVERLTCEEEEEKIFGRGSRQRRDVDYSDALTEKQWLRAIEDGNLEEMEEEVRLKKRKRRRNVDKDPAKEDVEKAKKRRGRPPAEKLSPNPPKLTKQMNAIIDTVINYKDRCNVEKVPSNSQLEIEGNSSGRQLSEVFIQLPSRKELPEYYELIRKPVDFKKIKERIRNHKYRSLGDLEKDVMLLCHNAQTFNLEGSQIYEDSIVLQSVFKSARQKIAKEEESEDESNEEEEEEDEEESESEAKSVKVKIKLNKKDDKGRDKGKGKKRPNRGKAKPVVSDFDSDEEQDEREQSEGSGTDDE", "test": "Luminescence-based cell-based high throughput dose response assay to identify activators of the function of SWI/SNF related, matrix associated, actin dependent regulator of chromatin, subfamily a, member 2 (SMARCA2, BRM).", "format": "functional"}, "[5]": {"test": "Counterscreen for activators of the function of SWI/SNF related, matrix associated, actin dependent regulator of chromatin, subfamily a, member 2 (SMARCA2, BRM): Luminescence-based cell-based high throughput dose response assay to identify non-selective compounds using the VP16 reporter assay.", "format": "functional"}, "[6]": {"target": "T2, DNA repair protein RAD52 homolog (Homo sapiens, UniProt P43351)", "T2 sequence (P43351 whole entry)": "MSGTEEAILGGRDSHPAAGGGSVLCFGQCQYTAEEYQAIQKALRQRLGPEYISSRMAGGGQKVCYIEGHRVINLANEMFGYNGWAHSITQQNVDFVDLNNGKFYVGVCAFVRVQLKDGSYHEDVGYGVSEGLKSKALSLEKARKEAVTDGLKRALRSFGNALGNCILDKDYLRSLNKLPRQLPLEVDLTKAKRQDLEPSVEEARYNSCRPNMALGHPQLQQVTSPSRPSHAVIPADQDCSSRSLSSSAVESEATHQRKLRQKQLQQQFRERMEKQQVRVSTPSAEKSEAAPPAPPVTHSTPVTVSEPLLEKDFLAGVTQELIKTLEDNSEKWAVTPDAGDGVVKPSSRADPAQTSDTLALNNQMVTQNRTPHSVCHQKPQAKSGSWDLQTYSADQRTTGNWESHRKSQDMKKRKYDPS", "format": "functional, biochemical"}, "[7]": {"target": "T3, Beta-2 adrenergic receptor (Homo sapiens, UniProt P07550)", "T3 sequence (P07550 whole entry)": "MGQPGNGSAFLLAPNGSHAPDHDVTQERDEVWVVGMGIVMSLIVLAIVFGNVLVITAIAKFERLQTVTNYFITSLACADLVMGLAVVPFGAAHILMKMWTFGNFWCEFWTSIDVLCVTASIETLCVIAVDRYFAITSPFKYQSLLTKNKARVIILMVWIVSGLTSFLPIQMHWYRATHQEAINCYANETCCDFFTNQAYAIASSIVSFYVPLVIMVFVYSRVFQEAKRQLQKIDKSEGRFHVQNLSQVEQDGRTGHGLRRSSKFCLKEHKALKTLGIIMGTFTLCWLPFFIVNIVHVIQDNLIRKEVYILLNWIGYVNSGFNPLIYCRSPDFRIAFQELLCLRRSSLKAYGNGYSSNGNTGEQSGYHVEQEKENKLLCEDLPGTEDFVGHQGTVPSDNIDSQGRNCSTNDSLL", "test": "Dose response for HTS for Beta-2AR agonists via FAP method from Powderset1.", "format": "functional"}, "[8]": {"target": "T3, Beta-2 adrenergic receptor", "test": "ADRB2 activation measured by internalization – cell-based, FAP fluorogen, flow cytometry, cherry pick 1, dose response (AID 588763)", "format": "functional"}, "Beta-galactosidase": {"target": "Beta-galactosidase (Escherichia coli, UniProt Q8VNN2)", "sequence (Q8VNN2 whole entry)": "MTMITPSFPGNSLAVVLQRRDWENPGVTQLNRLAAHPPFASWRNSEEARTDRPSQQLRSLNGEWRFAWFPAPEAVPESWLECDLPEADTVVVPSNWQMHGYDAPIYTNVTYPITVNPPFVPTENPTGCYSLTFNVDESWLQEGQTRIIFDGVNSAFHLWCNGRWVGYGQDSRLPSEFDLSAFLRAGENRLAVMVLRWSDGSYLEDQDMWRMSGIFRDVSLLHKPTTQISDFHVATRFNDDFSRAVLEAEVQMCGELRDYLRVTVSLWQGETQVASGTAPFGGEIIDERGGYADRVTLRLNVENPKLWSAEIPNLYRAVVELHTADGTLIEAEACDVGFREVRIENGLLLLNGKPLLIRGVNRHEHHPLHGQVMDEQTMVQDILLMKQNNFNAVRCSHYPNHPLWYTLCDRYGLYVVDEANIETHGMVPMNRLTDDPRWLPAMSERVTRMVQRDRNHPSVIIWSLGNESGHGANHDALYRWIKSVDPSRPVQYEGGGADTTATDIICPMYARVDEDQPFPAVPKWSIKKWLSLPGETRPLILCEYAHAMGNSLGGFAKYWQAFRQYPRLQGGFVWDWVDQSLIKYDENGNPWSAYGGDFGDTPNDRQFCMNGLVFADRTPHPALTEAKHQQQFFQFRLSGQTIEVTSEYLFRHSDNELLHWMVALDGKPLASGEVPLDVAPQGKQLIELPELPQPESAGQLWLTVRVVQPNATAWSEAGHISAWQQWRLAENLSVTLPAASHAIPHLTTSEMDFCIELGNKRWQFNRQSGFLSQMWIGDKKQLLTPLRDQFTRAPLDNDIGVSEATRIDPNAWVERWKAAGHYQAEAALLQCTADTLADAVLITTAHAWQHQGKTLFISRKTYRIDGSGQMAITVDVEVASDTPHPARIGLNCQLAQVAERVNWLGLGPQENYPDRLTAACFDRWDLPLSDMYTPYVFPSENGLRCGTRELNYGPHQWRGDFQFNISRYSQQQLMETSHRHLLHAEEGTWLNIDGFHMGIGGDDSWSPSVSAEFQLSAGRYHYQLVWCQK", "test": "Dose response counterscreen for EBI2 assay utilizing the enzyme, b-galactosidase.", "format": "functional"}, "Melanocortin receptor 4": {"target": "Melanocortin receptor 4 (Homo sapiens, UniProt P32245)", "sequence (P32245 whole entry)": "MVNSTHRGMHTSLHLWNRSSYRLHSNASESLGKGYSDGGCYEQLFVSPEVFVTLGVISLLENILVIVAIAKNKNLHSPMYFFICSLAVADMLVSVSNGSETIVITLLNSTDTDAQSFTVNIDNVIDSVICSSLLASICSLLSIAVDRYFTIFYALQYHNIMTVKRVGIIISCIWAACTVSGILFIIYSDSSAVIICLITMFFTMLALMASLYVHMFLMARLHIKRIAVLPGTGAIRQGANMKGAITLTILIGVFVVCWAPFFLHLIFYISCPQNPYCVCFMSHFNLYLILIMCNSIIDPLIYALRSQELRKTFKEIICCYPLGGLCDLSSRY", "format": "functional, cell-based"}, "[9]": {"target": "Arf-GAP with SH3 domain, ANK repeat and PH domain-containing protein 1 (Homo sapiens, UniProt Q9ULH1)", "sequence (Q9ULH1 whole entry, the tested form may be a part)": "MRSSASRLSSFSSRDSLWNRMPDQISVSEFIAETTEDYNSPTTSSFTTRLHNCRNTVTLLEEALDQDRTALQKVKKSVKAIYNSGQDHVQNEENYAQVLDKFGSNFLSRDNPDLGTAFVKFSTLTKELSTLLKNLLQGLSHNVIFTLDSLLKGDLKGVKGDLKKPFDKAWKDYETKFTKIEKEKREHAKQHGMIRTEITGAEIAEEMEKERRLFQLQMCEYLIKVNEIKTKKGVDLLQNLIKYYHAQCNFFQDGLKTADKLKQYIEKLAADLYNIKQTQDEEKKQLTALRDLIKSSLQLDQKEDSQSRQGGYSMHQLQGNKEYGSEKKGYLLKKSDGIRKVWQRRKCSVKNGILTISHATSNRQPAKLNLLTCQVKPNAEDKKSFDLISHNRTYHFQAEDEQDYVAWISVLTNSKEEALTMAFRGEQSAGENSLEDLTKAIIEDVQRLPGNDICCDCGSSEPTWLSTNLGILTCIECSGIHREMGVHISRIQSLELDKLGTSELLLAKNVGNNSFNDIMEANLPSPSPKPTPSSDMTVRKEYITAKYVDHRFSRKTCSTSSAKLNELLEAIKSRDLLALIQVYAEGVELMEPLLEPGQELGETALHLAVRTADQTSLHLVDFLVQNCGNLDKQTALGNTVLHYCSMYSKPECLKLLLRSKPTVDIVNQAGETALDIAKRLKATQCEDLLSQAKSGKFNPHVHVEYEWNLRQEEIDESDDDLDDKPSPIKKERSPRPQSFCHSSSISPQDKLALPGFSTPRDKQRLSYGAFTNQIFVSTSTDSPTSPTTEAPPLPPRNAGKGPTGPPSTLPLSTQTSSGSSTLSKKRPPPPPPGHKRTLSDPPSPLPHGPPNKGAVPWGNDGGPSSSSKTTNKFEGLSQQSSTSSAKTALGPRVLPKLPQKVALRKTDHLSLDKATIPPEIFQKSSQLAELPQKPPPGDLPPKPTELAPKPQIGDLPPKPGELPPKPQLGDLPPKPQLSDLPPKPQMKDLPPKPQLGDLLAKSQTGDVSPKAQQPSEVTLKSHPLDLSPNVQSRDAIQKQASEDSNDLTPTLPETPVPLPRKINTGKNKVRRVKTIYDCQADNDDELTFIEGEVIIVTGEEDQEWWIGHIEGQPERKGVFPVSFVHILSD", "format": "functional"}},
  "note": "Active and inactive are the calls of the source.",
  "data": [
    {"compound": "Clc1ccc(Cl)c(-c2nc(-c3ccncc3)no2)c1", "values": [
      {"measurement": "IC50", "setting": "[1]", "value": "6.55 µM (active)"},
      {"measurement": "IC50", "setting": "[2]", "value": "> 80 µM (inactive)"},
      {"measurement": "IC50", "setting": "[3]", "value": "25.4 µM (inactive)"}
    ]},
    {"compound": "O=C1c2ccccc2C(=O)c2c(NCCCN(CCO)CCO)cccc21", "values": [
      {"measurement": "IC50", "setting": "Aminopeptidase N", "value": "77.7 µM (active)"},
      {"measurement": "CC50", "setting": "Vero", "value": "13.9 µM (active)"},
      {"measurement": "EC50", "setting": "[4]", "value": "> 10.1 µM (inactive)"},
      {"measurement": "EC50", "setting": "[5]", "value": "> 91.2 µM (inactive)"},
      {"measurement": "AC50", "setting": "[6]", "value": "0.977 µM (active)"}
    ]},
    {"compound": "Cc1ccc(SCC(=O)Nc2ccc(-c3nc4ccccc4[nH]3)cc2)cc1", "values": [
      {"measurement": "EC50", "setting": "[7]", "value": "0.00682 µM (active)"},
      {"measurement": "EC50", "setting": "[8]", "value": "0.0116 µM (active)"}
    ]},
    {"compound": "CCc1ccc2oc(C(=O)N3CCN(c4ccc(OC)cc4)CC3)cc(=O)c2c1", "values": [
      {"measurement": "IC50", "setting": "Beta-galactosidase", "value": "> 80 µM (inactive)"}
    ]},
    {"compound": "COc1ccc2nc(NC(=O)CSc3nc4cccnc4n3C)sc2c1", "values": [
      {"measurement": "EC50", "setting": "Melanocortin receptor 4", "value": "> 89.2 µM (inactive)"}
    ]},
    {"compound": "CCOC(=O)N1CCN(C(=O)CN(C)S(=O)(=O)c2ccc(Cl)cc2)CC1", "values": [
      {"measurement": "EC50", "setting": "[7]", "value": "0.987 µM (active)"},
      {"measurement": "EC50", "setting": "[8]", "value": "1.95 µM (active)"}
    ]},
    {"compound": "COc1cccc(-n2nnc3c(=O)n(Cc4ccc(Br)cc4)cnc32)c1", "values": [
      {"measurement": "IC50", "setting": "[9]", "value": "24.7 µM (inactive)"}
    ]}
  ]
}
